Test results taken from paper PMC2652245 (Cancer research, 2008).

Tests used:
[1] = biological target: T1, ABCG2 (Homo sapiens, UniProt Q9UNQ0)
T1 sequence (Q9UNQ0 1-655): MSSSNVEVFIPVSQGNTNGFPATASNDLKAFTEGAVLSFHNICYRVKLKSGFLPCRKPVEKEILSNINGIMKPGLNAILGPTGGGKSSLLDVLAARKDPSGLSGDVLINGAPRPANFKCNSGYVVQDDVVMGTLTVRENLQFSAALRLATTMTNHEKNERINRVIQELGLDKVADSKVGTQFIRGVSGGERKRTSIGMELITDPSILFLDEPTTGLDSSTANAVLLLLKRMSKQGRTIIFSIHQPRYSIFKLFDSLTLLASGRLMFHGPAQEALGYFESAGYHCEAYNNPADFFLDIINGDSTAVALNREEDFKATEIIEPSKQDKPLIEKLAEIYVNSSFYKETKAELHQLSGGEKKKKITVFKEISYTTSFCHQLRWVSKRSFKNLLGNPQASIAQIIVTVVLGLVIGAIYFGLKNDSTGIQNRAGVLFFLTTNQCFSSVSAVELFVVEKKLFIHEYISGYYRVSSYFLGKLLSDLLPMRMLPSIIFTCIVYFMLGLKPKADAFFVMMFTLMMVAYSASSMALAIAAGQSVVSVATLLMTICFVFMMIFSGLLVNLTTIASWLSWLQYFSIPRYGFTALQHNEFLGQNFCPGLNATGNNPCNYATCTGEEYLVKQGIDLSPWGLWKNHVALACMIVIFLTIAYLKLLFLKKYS

[2] = biological target: ABCB1 (P-glycoprotein) (Homo sapiens, UniProt P08183); assay: competition of […]-IAAP photoaffinity labeling in membrane vesicles; assay type: binding
Chain of ABCB1 (P-glycoprotein) (P08183 whole entry): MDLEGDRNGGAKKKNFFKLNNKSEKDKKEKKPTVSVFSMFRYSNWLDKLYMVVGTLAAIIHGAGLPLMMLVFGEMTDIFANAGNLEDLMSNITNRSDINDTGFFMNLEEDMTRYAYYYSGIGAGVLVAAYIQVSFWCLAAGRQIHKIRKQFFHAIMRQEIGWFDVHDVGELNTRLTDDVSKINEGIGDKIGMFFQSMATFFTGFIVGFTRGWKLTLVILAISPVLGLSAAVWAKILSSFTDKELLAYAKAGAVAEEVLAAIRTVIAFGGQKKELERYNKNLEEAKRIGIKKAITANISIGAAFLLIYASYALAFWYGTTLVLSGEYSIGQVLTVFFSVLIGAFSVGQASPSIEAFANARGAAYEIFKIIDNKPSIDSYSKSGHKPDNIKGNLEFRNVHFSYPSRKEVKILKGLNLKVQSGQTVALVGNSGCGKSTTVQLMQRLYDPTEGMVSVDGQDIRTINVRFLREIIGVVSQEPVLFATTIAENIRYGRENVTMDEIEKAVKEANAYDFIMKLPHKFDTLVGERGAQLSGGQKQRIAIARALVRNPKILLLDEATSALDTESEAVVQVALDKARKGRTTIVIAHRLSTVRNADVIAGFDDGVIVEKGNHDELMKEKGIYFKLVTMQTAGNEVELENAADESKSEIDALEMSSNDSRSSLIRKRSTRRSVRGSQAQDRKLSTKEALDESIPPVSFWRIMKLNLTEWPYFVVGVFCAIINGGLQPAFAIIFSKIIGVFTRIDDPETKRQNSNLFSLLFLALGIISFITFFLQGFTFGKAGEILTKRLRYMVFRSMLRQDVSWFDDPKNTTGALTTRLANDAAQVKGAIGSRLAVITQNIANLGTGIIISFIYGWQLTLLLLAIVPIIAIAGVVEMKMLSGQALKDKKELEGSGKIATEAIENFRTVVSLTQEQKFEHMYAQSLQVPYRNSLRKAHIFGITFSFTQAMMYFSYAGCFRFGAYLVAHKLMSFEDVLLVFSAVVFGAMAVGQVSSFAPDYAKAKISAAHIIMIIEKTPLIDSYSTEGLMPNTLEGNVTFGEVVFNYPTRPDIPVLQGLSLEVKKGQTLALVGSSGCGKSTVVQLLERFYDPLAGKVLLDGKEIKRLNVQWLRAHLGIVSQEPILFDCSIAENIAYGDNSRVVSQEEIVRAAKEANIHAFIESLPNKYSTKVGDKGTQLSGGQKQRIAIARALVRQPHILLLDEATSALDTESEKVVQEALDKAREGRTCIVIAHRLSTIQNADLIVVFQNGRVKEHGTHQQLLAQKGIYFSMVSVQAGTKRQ

Row | SMILES | inhibition of [3H]-methotrexate uptake in membrane vesicles [1] | IC50 [2] [nM]
1 | C#Cc1cccc(Nc2ncnc3cc(OCCOC)c(OCCOC)cc23)c1 [erlotinib] | inhibitory effect of lapatinib on methotrexate transport by ABCG2 membrane vesicles is comparable to that of erlotinib and FTC | –
2 | CS(=O)(=O)CCNCc1ccc(-c2ccc3ncnc(Nc4ccc(OCc5cccc(F)c5)c(Cl)c4)c3c2)o1 [lapatinib, N-{3-chloro-4-[(3-fluorobenzyl)oxy]phenyl}-6-[5-({[2-(methylsulfonyl)ethyl]amino}methyl)-2-furyl]-4-quinazolinamine] | – | 2800 ± 600
